Measurements published in patent publication US20260184692A1, “HETEROCYCLIC COMPOUNDS, PREPARATION METHODS AND USES THEREOF” (InventisBio Co., Ltd., priority 2022, published 2026).

How the values were obtained:
OVCAR3 Cells = experiment: OVCAR3 Cell Viability Assay (CellTiter-Glo); type: cell-based; conditions: Homo sapiens, OVCAR-3, 144 h, 6 days incubation, read-out: OVCAR3 CTG IC50
Outline: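 Cells seeded at 2000/well in RPMI1640 + 20% FBS + insulin, treated next day with serially diluted compound for 6 days at 37 °C, 5% CO2 (0.5% DMSO final). Viability by CellTiter-Glo luminescence; inhibition normalised to DMSO and blank controls, IC50 from four-parameter fit.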

PXR = target: T1, PXR (Homo sapiens, UniProt O75469); experiment: In Vitro PXR Activation Study (DPX2 cells); type: cell-based; conditions: concentration 30 uM, 48 h treatment
T1 construct: expressed in transfected cells; host or cells: DPX2 cells
T1 sequence (O75469 1-434): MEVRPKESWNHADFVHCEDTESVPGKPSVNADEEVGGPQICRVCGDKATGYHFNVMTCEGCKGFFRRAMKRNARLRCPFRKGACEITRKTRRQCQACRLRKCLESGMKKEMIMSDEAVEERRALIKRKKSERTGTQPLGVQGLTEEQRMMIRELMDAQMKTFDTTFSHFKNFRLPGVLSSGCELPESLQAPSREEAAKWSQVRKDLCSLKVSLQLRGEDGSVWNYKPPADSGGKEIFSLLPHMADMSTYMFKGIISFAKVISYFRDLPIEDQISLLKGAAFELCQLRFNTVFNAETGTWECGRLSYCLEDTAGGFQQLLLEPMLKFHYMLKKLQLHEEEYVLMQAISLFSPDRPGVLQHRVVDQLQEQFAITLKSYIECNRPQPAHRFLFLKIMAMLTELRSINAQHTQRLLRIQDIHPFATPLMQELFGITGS
Description: Prepared the culture medium for DPX2 cells using DPX2 culturing medium supplemented with 10% FBS. Cultivated DPX2 cells in T-75 flasks in a cell culture incubator set at 37 C, 5% CO2, 95% relative humidity. Allowed cells to reach 80-90% confluence before detaching and splitting. Rinsed cultivated cells in T-75 flasks with 5 mL PBS. Aspirate off, add 1.5 mL trypsin, and incubated at 37° C. for approximately 5 minutes or until the cells detach and float. Inactivated trypsin by adding excess serum containing medium. Removed cell suspension to a conical tube and pellet cells by centrifugation at 150×g for 5 minutes. Resuspended cells in seeding medium at a density of 3.2×10^5 cells/mL. Transferred 25 μL to each well of 384-well cell culture plate. Placed plate(s) in incubator and incubate at 37° C. for 24 hours.
Prepared stock solutions of test compounds and inducers in DMSO. Final concentration of DMSO in the treatment group should be 0.1%. Removed the plates from the incubator and directly add 25 μL of the negative control, inducers, or test article solutions. Returned plates to the incubator for 48 hours. […] After 48 h of treatment, the cultures were ready for the determination of quantitation of PXR activation.
The fold-activation mRNA level was determined by the equation: […]

HCC1806 Cells = experiment: HCC1806 Cell Viability Assay (CellTiter-Glo); type: cell-based; conditions: Homo sapiens, 144 h, 6 days incubation, read-out: HCC1806 CTG IC50
Description: HCC1806 Cells (ATCC, Cat #CRL-2335) were seeded at a density of 500 cells/well in a 96-well clear bottom plate (Greiner, Cat #655098) in 100 μL of complete media (RPMI1640+10% FBS). One hundred microliter of complete media was added into the blank wells (column 1) for low control. Cells were allowed to adhere to the plate overnight in the incubator at 37° C., 5% CO2. On the following day, 0.5 μL of serially-diluted compounds were added to the cells (columns 2-10) and incubated for 6 days at 37° C., 5% CO2 (final 0.5% DMSO concentration); 0.5 μL of DMSO solution was added into the wells (column 11) for high control. Cell viability was detected according to the CellTiter-Glo Luminescent Cell Viability Assay Kit (Promega, Cat #G7573). Luminescence was recorded on the Tecan Spark plate reader. Inhibition rate (IR) of the tested compounds was determined by the following formula: IR (%)=(1−(RLUcompound−RLUlow control)/(RLUhigh control−RLUlow control))×100%. The IC50 value was calculated using the non-linear regression equation: Y=Bottom+(Top−Bottom)/(1+10^((Log IC50−X)×HillSlope)), where X is Log of compound concentration, Y is percent inhibition (IR (%)), Top and Bottom are plateaus in same units as Y.

Mouse PK Assay = type: in vivo; conditions: plasma, male BALB/c mouse
[1] = Human Plasma Protein Binding Assay (dialysis); type: in vitro ADME; conditions: 1 μM compound, dialysis 6 hr at 37 °C
Description: The plasma protein binding of compounds in human plasma was determined using a dialysis method. The dialysis membrane strips were prepared by soaking them in ultra-pure water for about 1 hr at room temperature, followed by separation and soaking in ethanol:water (20:80 v:v) for about 20 min, and a final rinse with ultra-pure water. Prior to use, the membranes were rinsed and soaked for another 20 min in ultra-pure water.
The blank plasma samples were thawed, centrifuged and verified its pH values. Only the plasma with pH between 7.0-8.0 was used in the experiment. The final concentration of compound in the spiked plasma is 1 μM, with final DMSO<=1%. All samples were prepared in triplicates. The time zero (T0) samples was used for determining the recovery of the compound of interest after dialysis. It was prepared in the same way as other dialysis samples except it was stored at 2-8° C. before LC-MS/MS analysis.
The other spiked plasma samples were loaded onto the dialysis device and incubated at and 37±1° C. with 5% CO2 for 6 hr. At the end of the dialysis, aliquots of samples from the plasma and buffer sides of the dialysis device were taken and processed for LC-MS/MS analysis.
The % Unbound, % Bound, and % Recovery of the compounds were calculated from the peak area ratios of the analyte and internal standard in the plasma and buffer samples as shown in the following equations:
[formula] [formula] [formula] • where [F] is the peak area ratio of analyte/internal standard on the buffer (receiver) side of the membrane; [T] is the peak area ratio of analyte/internal standard on the plasma (donor) side of the membrane; [T0] is the peak area ratio of analyte/internal standard in the plasma sample at time zero.

P450 2C9 = target: T2, P450 2C9 (Homo sapiens, UniProt P11712); experiment: In Vitro Cytochrome P450 Inhibition Study; type: in vitro ADME; conditions: human liver microsomes (HLM), test compound 0.137 μM to 10 μM, 10 min at 37 °C
T2 construct: incubation with known industry-accepted CYP450 substrates, test articles and microsomes (HLM); from tissue; host or cells: liver microsomes (HLM)
Description: CYP inhibition was evaluated by monitoring corresponding metabolite decrease after incubation with known industry-accepted CYP450 substrates, test articles and microsomes (HLM).
Eight reaction wells with 30 μL of a solution containing 100 mM potassium phosphate, pH 7.4 and 1:3 serial dilutions of the test compound were prepared along with eight wells of 1:3 serial dilutions of Sulfaphenazole (a positive control inhibitor). The assay plates were pre-warmed after 15 μL of probe substrate was added into appropriate wells. Then the reactions were initiated by adding 15 μL of a pre-warmed 8 mM NADPH solution resulting in a final NADPH concentration of 2 mM. The concentrations of test compound ranged from 0.137 μM to 10 μM. A zero time-point control reaction was prepared by adding 135 μL acetonitrile (ACN) containing tolbutamide (200 ng/mL) as internal standard (IS) to 30 μL. of the reaction solution to inactivate the enzymes before adding the probe substrate. A control reaction with no inhibitor was also prepared. After a suitable incubation at 37° C., 10 min, the reactions were terminated by the addition of 135 μL ACN containing IS. The reactions were prepared and analyzed for the metabolite forms of the probe substrate using LC-MS/MS.

T2 sequence (P11712 whole entry): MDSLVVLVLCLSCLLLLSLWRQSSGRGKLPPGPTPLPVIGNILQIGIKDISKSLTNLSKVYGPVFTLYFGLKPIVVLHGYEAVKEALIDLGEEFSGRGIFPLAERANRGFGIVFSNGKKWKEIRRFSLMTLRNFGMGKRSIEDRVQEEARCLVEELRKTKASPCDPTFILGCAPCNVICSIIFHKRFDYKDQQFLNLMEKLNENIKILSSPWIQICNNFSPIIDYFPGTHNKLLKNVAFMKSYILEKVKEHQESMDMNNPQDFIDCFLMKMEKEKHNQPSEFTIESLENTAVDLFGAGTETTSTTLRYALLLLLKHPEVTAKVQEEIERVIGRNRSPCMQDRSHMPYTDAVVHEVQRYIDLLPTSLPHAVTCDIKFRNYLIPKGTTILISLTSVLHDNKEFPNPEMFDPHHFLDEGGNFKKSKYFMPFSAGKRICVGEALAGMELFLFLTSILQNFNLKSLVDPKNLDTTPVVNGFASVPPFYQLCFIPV

Row | Structure (SMILES) | IC50 (OVCAR3 Cells) [nM] | Induction Fold (PXR) [x] | IC50 (HCC1806 Cells) [nM] | MRT (Mouse PK Assay; IV) [h] | half-life (Mouse PK Assay; single oral dose 5 mg/kg, read-out: PO T1/2 (converted)) [h] | fraction unbound at 6 hr, 1 μM [1] | IC50 (P450 2C9) [nM]
1 | N#Cc1ccc(N2CC3(CCC4(CC4)CC3)c3cc(NS(=O)(=O)CCO)ccc3C2=O)nc1N1CCC(F)(F)CC1 [Compound 27] | < 200 | 1.8 | < 200 | 6.2 | 3.7 |  | 
2 | COc1ccc(N2CC3(CCC4(CC4)CC3)c3cc(NS(=O)(=O)CCO)ccc3C2=O)nc1N1CCC(F)(F)CC1 [Compound 133] | < 200 | 1.7 |  |  |  | 0.001 | > 10000
